# According to patent US12011444B2, “N-substituted indole derivatives as PGE2 receptor modulators” (Idorsia Pharmaceuticals Ltd, priority 2015, dated 2024):
# pIC50: −log10 of the molar value.
# How the values were obtained:
# EP2 = EP2 (Homo sapiens (Human), UniProt P43116);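 note: antagonism of PGE2-stimulated cAMP accumulation in SF295 human glioblastoma cells with endogenous EP2, cAMP read by HTRF, expressed relative to DMSO control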
# Description: Human tumor cell lines expressing endogenously either EP4 or EP2 are used and cAMP accumulation in cells upon PGE2 stimulation is monitored. SF295 glioblastoma cells express high endogenous EP2 and no EP4, whereas BT549 breast cancer cells, express high endogenous EP4 levels and very low EP2 levels.
# As a detection method for cAMP the HTRF (homogeneous time resolved fluorescence) Cisbio kit (HTRF cAMP dynamic 2 kit 20′000 tests Cisbio Cat. #62AM4PEC) was used, which is based on a competitive immunoassay using a Cryptate-labeled anti-cAMP antibody and d2-labeled cAMP. Native cAMP produced by cells or unlabeled cAMP (for the standard curve) compete with exogenously added d2-labeled cAMP (acceptor) for binding to monoclonal anti-cAMP-Eu3+Cryptate (donor). A FRET signal (Fluorescence Resonance Energy Transfer) is obtained only if the labeled anti-cAMP antibody binds the d2 labelled cAMP, thus the specific signal (i.e. energy transfer) is inversely proportional to the concentration of cAMP in the standard or sample.
# The SF295 cells (NCI/No. 0503170) are detached from culture dishes with a cell dissociation buffer (Invitrogen, 13151-014), and collected in growing medium (GM: RPM11640 (Invitrogen 21875)/10% FCS, 1% Penicilin/streptomycin). Cells are counted washed and resuspended in assay buffer (AB; HBSS, 20 mM HEPES, 0.2% BSA; 2 mM IBMX). 4,000 cells in 5 μl of AB are seeded per well of a small volume 384 well plate (black with flat bottom, Greiner 784076).
# PGE2 (Cayman 14010, stock solution: 75 μM in DMSO) is used as agonist at 75 nM final concentration, corresponding to EC80.
# Two point five microliters of diluted compounds are transferred into the assay plate. Plate is pre-incubated 45 minutes at room temperature. Subsequently, 2.5 microliters of PGE2 (final conc. 75 nM) are transferred into the assay plate. Plate is incubated 30 minutes at room temperature. Five μl of each donor (anti-cAMP cryptate) and acceptor (cAMP-d2) are added and the plate is incubated another hour at room temperature in the dark and then read using a BMG LABTECH PHERAstar reader (Excitation: 337 nm, Emission: 620 and 665 nm).
# The obtained Delta F (fluorescence) values (665 nm/620 nM) are converted into % cAMP values using the measurements of the cAMP calibrator provided in the kit. For each compound concentration the percentage of cAMP compared to DMSO control value as average±STDEV (each concentration is measured in duplicate) is calculated.
# IC50 values and curves are generated with XLfit software (IDBS) using Dose-Response One Site model 203. When compounds were measured multiple times, mean values are given.
# EP4 = EP4 (Homo sapiens (Human), UniProt P35408); assay: hEP4 cAMP assay (BT549 breast cancer cells, HTRF cAMP); assay type: cell-based; conditions: antagonistic activity; mean values where measured multiple times
# EP4, sequence (P35408 whole entry): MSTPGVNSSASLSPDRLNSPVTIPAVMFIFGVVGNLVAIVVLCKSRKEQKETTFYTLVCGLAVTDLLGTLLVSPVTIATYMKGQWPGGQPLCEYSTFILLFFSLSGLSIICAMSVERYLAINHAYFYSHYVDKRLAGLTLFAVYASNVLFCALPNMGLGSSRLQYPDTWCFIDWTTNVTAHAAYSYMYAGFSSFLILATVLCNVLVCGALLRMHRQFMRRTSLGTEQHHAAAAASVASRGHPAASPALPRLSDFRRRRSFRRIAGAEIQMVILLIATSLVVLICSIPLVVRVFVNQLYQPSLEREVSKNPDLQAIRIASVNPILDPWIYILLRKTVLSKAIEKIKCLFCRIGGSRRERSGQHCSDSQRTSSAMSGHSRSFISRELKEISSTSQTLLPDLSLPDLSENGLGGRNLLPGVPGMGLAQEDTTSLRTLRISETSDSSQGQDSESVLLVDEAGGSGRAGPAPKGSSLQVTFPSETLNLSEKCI
# Procedure: Plate is pre-incubated 45 minutes at room temperature. Subsequently, 2.5 microliters of PGE2 (final conc. 6 nM) are transferred into the assay plate. Plate is incubated 30 minutes at room temperature.
# EP2, sequence (P43116 whole entry): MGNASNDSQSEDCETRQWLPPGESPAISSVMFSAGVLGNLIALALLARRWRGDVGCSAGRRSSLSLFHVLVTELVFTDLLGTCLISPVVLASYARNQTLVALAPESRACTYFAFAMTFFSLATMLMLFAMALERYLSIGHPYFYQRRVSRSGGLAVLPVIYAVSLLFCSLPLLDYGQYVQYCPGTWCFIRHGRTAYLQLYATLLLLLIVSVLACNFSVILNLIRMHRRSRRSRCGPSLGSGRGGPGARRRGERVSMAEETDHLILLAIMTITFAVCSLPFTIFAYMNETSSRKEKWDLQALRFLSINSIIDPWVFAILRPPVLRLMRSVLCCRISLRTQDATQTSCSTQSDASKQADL
Structure (SMILES),pIC50 (EP2),pIC50 (EP4)
CCOc1cc(-c2cc(NCCn3c(C)cc4c(OC)ccc(F)c43)nc(C)n2)ccc1C(=O)O [compound 494],7.60,6.21
Cc1nc(-c2ccc(-c3cc(NCCn4c(C)cc5c(C)cc(F)cc54)ncn3)cc2)c[nH]1 [compound 548],8.22,7.21
CCOc1cc(-c2cc(NCCn3c(C)cc4c(OC)ccc(Cl)c43)ncn2)ccc1C(=O)O [compound 405],7.74,6.45
CNS(=O)(=O)c1ccc(-c2cc(NCCn3c(C)cc4c(C)ccc(F)c43)ncn2)cc1C(F)(F)F [compound 563],6.95,6.22
COc1ccc(Cl)c2c1cc(C)n2CCNc1cc(-c2ccc(C(=O)O)c(CC(C)C)c2)ncn1 [compound 536],7.57,6.76
COc1c(F)cc(Cl)c2c1cc(C)n2CCNc1cc(-c2ccc(C(=O)O)c(SC)c2)ncn1 [compound 448],7.34,6.29
COc1cccc2c1cc(C)n2CCNc1cc(-c2ccc(-c3csc(C)n3)cc2)ncn1 [compound 566],7.34,6.27
"CCOc1cc(-c2cc(NCCn3c(C)cc4c(OC)ccc(F)c43)ncn2)ccc1C(=O)NOC(C)C [Example 770, 2-Ethoxy-4-{6-[2-(7-fluoro-4-methoxy-2-methyl-indol-1-yl)-ethylamino]-pyrimidin-4-yl}-N-isopropoxy-benzamide]",7.80,6.43
CCCc1cc(-c2cc(NCCn3c(C)cc4cc(Cl)cc(F)c43)ncn2)cc(Cl)c1C(=O)O [compound 427],7.07,6.62
Cc1nc(NCCn2c(C)cc3c(C)cc(F)cc32)cc(-c2ccc(C(=O)O)c(CC(C)C)c2)n1 [compound 503],7.24,6.30
CCOc1cc(-c2cc(NCCn3c(C)cc4c(OC)ccc(F)c43)ncn2)cc(CC)c1C(=O)O [compound 618],7.62,6.40
"Cc1cc2c(Cl)ccc(Cl)c2n1CCNc1cc(-c2ccc(C(=O)O)c(SC3CCC3)c2)ncn1 [compound 453, 2-Cyclobutylsulfanyl-4-{6-[2-(4,7-dichloro-2-methyl-indol-1-yl)-ethylamino]-pyrimidin-4-yl}-benzoic acid]",7.51,6.04
Cc1noc(-c2ccc(-c3cc(NCCn4c(C)cc5c(C)ccc(F)c54)ncn3)cc2)c1C(=O)O [compound 477],6.91,6.24
CCOc1cc(-c2cc(NCCn3c(C)cc4c(OC)cccc43)ncn2)cc(F)c1C(=O)O [compound 407],7.82,6.20
CCCc1cc(-c2cc(NCCn3c(C)cc4c(OC)c(F)ccc43)ncn2)cc(F)c1C(=O)O [compound 520],7.09,6.32
"Cc1cc2ccccc2n1CCNc1cc(-c2ccc(-c3nnn[nH]3)s2)ncn1 [Example 792, [2-(2-Methyl-indol-1-yl)-ethyl]-{6-[5-(1H-tetrazol-5-yl)-thiophen-2-yl]-pyrimidin-4-yl}-amine]",8.70,6.64
Cc1cc2c(Cl)cc(Cl)cc2n1CCNc1cc(-c2ccc(C(=O)O)c(CC(C)C)c2)ncn1 [compound 418],7.13,6.16
COc1ccc(F)c2c1cc(C)n2CCNc1cc(-c2cc(C(F)(F)F)c(C(=O)O)s2)nc(C)n1 [compound 540],7.74,7.64

Structure (SMILES),pIC50 (EP2),pIC50 (EP4)
CCOc1cc(-c2cc(NCCn3c(C)cc4c(OC)ccc(F)c43)ncn2)cc(Cl)c1C(=O)O [compound 489],7.60,6.99
"COc1cc(F)cc2c1cc(C)n2CCNc1cc(-c2ccc(-c3cc(F)ccn3)cc2)ncn1 [Example 759, [2-(6-Fluoro-4-methoxy-2-methyl-indol-1-yl)-ethyl]-{6-[4-(4-fluoro-pyridin-2-yl)-phenyl]-pyrimidin-4-yl}-amine]",7.26,6.12
Cc1cc2c(F)c(F)ccc2n1CCNc1cc(-c2ccc(C(=O)O)c(CC(C)C)c2)ncn1 [compound 411],7.70,6.35
CCCOc1cc(-c2cc(NCCn3c(C)cc4c(C)cc(F)cc43)ncn2)cc(Cl)c1C(=O)O [compound 523],7.46,6.85
"COc1cc(F)cc2c1cc(C)n2CCNc1cc(-c2ccc(-c3ncnn3C)cc2)ncn1 [Example 753, [2-(6-Fluoro-4-methoxy-2-methyl-indol-1-yl)-ethyl]-{6-[4-(2-methyl-2H-[1,2,4]triazol-3-yl)-phenyl]-pyrimidin-4-yl}-amine]",7.00,6.26
COc1cccc2c1cc(C)n2CCNc1cc(-c2ccc(C(=O)O)c(OC(F)F)c2)ncn1 [compound 598],8.70,6.47
CCCc1cc(-c2cc(NCCn3c(C)cc4cc(OC)cc(F)c43)ncn2)cc(F)c1C(=O)O [compound 516],6.49,6.35
"Cc1cc2ccccc2n1CCNc1cc(-c2ccc3c(=O)[nH][nH]c3c2)ncn1 [Example 772, 6-{6-[2-(2-Methyl-indol-1-yl)-ethylamino]-pyrimidin-4-yl}-1,2-dihydro-indazol-3-one]",7.82,6.50
CCOc1cc(-c2cc(NCCn3c(C)cc4c(OC)ccc(F)c43)ncn2)ccc1CNCCOC [compound 589],6.64,6.15
COc1cc(F)cc2c1cc(C)n2CCNc1cc(-c2ccc(-c3csc(C(=O)O)n3)cc2)ncn1 [compound 578],8.05,7.28
CCCCOc1cc(-c2cc(NCCn3c(C)cc4c(OC)cccc43)ncn2)ccc1C(=O)O [compound 484],9.00,6.93
"CCOc1cc(-c2cc(NCCn3c(C)cc4c(Br)cccc43)ncn2)ccc1C(=O)O [Example 780, 4-{6-[2-(4-Bromo-2-methyl-indol-1-yl)-ethylamino]-pyrimidin-4-yl}-2-ethoxy-benzoic acid]",8.22,6.08
CCOc1cc(-c2cc(NCCn3c(C)cc4c(C)c(F)cc(F)c43)ncn2)ccc1C(=O)O [compound 430],8.05,7.06
Cc1cc(F)cc2c1cc(C)n2CCNc1cc(-c2ccc(C(=O)O)c(OCC(C)C)c2)ncn1 [compound 526],8.00,6.64
COc1cc(Cl)cc2c1cc(C)n2CCNc1cc(-c2ccc(C(=O)O)c(CC(C)C)c2)ncn1 [compound 529],7.72,6.96
Cc1cc2c(F)c(F)cc(F)c2n1CCNc1cc(-c2ccc(C(=O)O)c(CC(C)C)c2)ncn1 [compound 506],7.92,6.95
CCCOc1cc(-c2cc(NCCn3c(C)cc4c(F)cc(F)c(F)c43)ncn2)cc(Cl)c1C(=O)O [compound 620],8.22,6.25

# The next lines start with the values.
pIC50 (EP2),pIC50 (EP4),Structure (SMILES)
8.40,7.02,CCOc1cc(-c2cc(NCCn3c(C)cc4c(OC)cccc43)ncn2)ccc1-c1nnn[nH]1 [compound 664]
8.70,7.92,CCCOc1cc(-c2cc(NCCn3c(C)cc4c(OC)ccc(F)c43)ncn2)sc1C(=O)O [compound 677]
7.33,6.75,"Cc1ccc(F)c2c1cc(C)n2CCNc1cc(-c2ccc3c(ccn3C)c2)ncn1 [compound 704, [2-(7-Fluoro-2,4-dimethyl-indol-1-yl)-ethyl]-[6-(1-methyl-1H-indol-5-yl)-pyrimidin-4-yl]-amine]"
6.65,6.41,Cc1cnoc1-c1ccc(-c2cc(NCCn3c(C)cc4c(C)cc(F)c(F)c43)ncn2)cc1 [compound 719]
7.03,6.21,Cc1cnoc1-c1ccc(-c2cc(NCCn3c(C)cc4c(C)ccc(F)c43)ncn2)cc1 [compound 735]
7.62,6.54,CCOc1cc(-c2cc(NCCn3c(C)cc4c(OC)cc(F)cc43)ncn2)cc(F)c1-c1nnn[nH]1 [compound 658]
7.85,6.27,"COc1cc(F)cc2c1cc(C)n2CCNc1cc(-c2ccc(C(=O)CC#N)cc2)ncn1 [compound 709, 3-(4-{6-[2-(6-Fluoro-4-methoxy-2-methyl-indol-1-yl)-ethylamino]-pyrimidin-4-yl}-phenyl)-3-oxo-propionitrile]"
8.70,8.22,CCCOc1cc(-c2cc(NCCn3c(C)cc4c(OC)cc(F)cc43)ncn2)sc1C(=O)O [compound 674]
7.80,7.15,COc1ccc(F)c2c1cc(C)n2CCNc1cc(-c2ccc(C(=O)O)c(CC(C)C)c2)nc(C)n1 [compound 625]
7.24,6.69,Cc1cc(F)c(F)c2c1cc(C)n2CCNc1cc(-c2cc(Cl)c(C(=O)O)c(OCC(F)(F)F)c2)ncn1 [compound 724]
7.15,6.72,CCOc1cc(-c2cc(NCCn3c(C)cc4c(C)cc(F)c(F)c43)ncn2)cc(F)c1-c1nnn[nH]1 [compound 657]
7.06,6.09,Cc1cc(F)cc2c1cc(C)n2CCNc1cc(-c2ccc3nccnc3c2)ncn1 [compound 733]
8.40,6.00,"Cc1cc2ccccc2n1CCNc1cc(-c2ccc3[nH]ccc3c2)ncn1 [compound 695, [6-(1H-Indol-5-yl)-pyrimidin-4-yl]-[2-(2-methyl-indol-1-yl)-ethyl]-amine]"
7.60,6.81,"COc1ccc(F)c2c1cc(C)n2CCNc1cc(-c2ccc(-c3oncc3C)cc2)ncn1 [compound 737, [2-(7-Fluoro-4-methoxy-2-methyl-indol-1-yl)-ethyl]-{6-[4-(4-methyl-isoxazol-5-yl)-phenyl]-pyrimidin-4-yl}-amine]"
6.37,6.28,Cc1nc(CCC(=O)O)oc1-c1ccc(-c2cc(NCCn3c(C)cc4c(C)cc(F)c(F)c43)ncn2)cc1 [compound 653]
7.32,6.71,CCCOc1cc(-c2cc(NCCn3c(C)cc4c(C)cc(F)c(F)c43)ncn2)cc(F)c1C(=O)O [compound 627]
7.59,7.01,CCCOc1cc(-c2cc(NCCn3c(C)cc4c(C)c(F)cc(F)c43)ncn2)cc(Cl)c1C(=O)O [compound 629]
